# Measured values from patent publication US11231421B2, “Methods of treating multifocal cancer” (NYMOX CORPORATION, priority 2019, dated 2022).
# Where no end group is shown, it is not given here.
# Tests used:
# Assay type in all cases: in vivo, human
# [1] = test system: low grade prostate cancer (Gleason grade 6); test: Clinical study, Example 3: hemi-prostate multifocal cancer with Gleason upgrade; conditions: for % Imp.: hemi-prostate multifocal cancer with Gleason upgrade: vs control active surveillance
# Procedure: (§1) In a series of clinical studies a total of 146 men with low grade prostate cancer (Gleason grade 6) were treated in the following manner. Patients were randomized and treated with a transrectal intraprostatic single injection of a composition comprising 2.5 mg FT (n=49), or a composition comprising 15 mg FT (n=48), or were subject to control active surveillance (n=49). After the first follow-up biopsy at 45 days post-randomization, 18 patients in the control active surveillance group crossed over to a single administration of a composition in which 10 patients received 2.5 mg FT, and 8 patients received 15 mg FT. Patients were followed for 5 years including biopsies at baseline, 45 days, 18, 36, and 48 months, and urological evaluations with PSA every 6 months. Patients with Gleason grade increase or who elected surgical or radiotherapeutic intervention exited the study and were still included in the data analysis. Percentage of normal biopsies in the baseline focus quadrant and median tumor grade and volume were assessed; progression was measured by clinical and pathological outcomes including Gleason grade, and Gleason grade primary pattern, in the entire prostate sampled as well as for the treated prostate lobe. Interventions associated with Gleason grade increase as well as total incidence for any conventional surgical intervention (e.g., surgery, radiotherapy, and/or chemotherapy) was assessed.
# [2] = test system: low grade prostate cancer (Gleason grade 6); test: Clinical study, Example 8: cancer treatment with new multifocal and an increase in Gleason grade primary pattern in the hemi-prostate; conditions: for % Imp.: cancer treatment with new multifocal and an increase in Gleason grade primary pattern in the hemi-prostate: vs control active surveillance
# Procedure: as §1, with “assessed. This example evaluated the percentage of patients having conventional cancer treatment (surgery, radiotherapy, or chemotherapy), and having multifocal prostate cancer in the lobe (or hemi-prostate) in which the foci were initially treated with Gleason primary pattern (cancer treatment with new multifocal and an increase in Gleason grade primary pattern in the hemi-prostate).” for “assessed.”
# [3] = test system: low grade prostate cancer (Gleason grade 6); test: Clinical study, Example 7: cancer treatment with new multifocal with increased Gleason grade in the hemi-prostate; conditions: for % Imp.: cancer treatment with new multifocal with increased Gleason grade in the hemi-prostate: vs control active surveillance
# Procedure: as §1, with “assessed. This example evaluated the percentage of patients who had conventional cancer treatment (e.g., surgery, radiotherapy, and/or chemotherapy), and who and who had multifocal prostate cancer in the lobe (or hemi-prostate) in which the foci were initially treated with Gleason upgrade (cancer treatment with new multifocal with increased Gleason grade in the hemi-prostate).” for “assessed.”
# [4] = test system: low grade prostate cancer (Gleason grade 6); test: Clinical study, Example 2: new multifocal with increase Gleason primary pattern in entire prostate; conditions: for % Imp.: new multifocal with increase Gleason primary pattern, entire prostate: vs control active surveillance
# Procedure: as §1
# [5] = FT 2.5 mg, <=18 mos from treatment
# [6] = FT 2.5 mg, <=36 mos from treatment
# [7] = FT 2.5 mg, <=48 mos from treatment
# [8] = FT 15 mg, <=18 mos from treatment
# [9] = FT 15 mg, <=36 mos from treatment
# [10] = FT 15 mg, <=48 mos from treatment
# [11] = Pooled FT (2.5 mg and 15 mg), <=18 mos from treatment
# [12] = Pooled FT (2.5 mg and 15 mg), <=18 mos
# [13] = Pooled FT (2.5 mg and 15 mg), <=36 mos from treatment
# [14] = Pooled FT (2.5 mg and 15 mg), <=36 mos
# [15] = Pooled FT (2.5 mg and 15 mg), <=48 mos from treatment
# [16] = Pooled FT (2.5 mg and 15 mg), <=48 mos
substance,measurement,setting,value
fexapotide triflutate (IDQQVLSRIKLEIKRCL; also: trifluoroacetate salt) [FT],percentage of patients: hemi-prostate multifocal cancer with Gleason upgrade,[1]; [5],8.6%
same,% Imp.: hemi-prostate multifocal cancer with Gleason upgrade,"[1]; FT 2.5 mg, <=18 mos",54.26%
same,percentage of patients: hemi-prostate multifocal cancer with Gleason upgrade,[1]; [6],16.7%
same,% Imp.: hemi-prostate multifocal cancer with Gleason upgrade,"[1]; FT 2.5 mg, <=36 mos",53.2%
same,percentage of patients: hemi-prostate multifocal cancer with Gleason upgrade,[1]; [7],42.9%
same,% Imp.: hemi-prostate multifocal cancer with Gleason upgrade,"[1]; FT 2.5 mg, <=48 mos",5.7%
same,percentage of patients: hemi-prostate multifocal cancer with Gleason upgrade,[1]; [8],5.7%
same,% Imp.: hemi-prostate multifocal cancer with Gleason upgrade,"[1]; FT 15 mg, <=18 mos",69.7%
same,percentage of patients: hemi-prostate multifocal cancer with Gleason upgrade,[1]; [9],9.1 (p = 0.049) %
same,% Imp.: hemi-prostate multifocal cancer with Gleason upgrade,"[1]; FT 15 mg, <=36 mos",74.5%
same,percentage of patients: hemi-prostate multifocal cancer with Gleason upgrade,[1]; [10],13.3%
same,% Imp.: hemi-prostate multifocal cancer with Gleason upgrade,"[1]; FT 15 mg, <=48 mos",70.8%
same,percentage of patients: hemi-prostate multifocal cancer with Gleason upgrade,[1]; [11],7.1%
same,% Imp.: hemi-prostate multifocal cancer with Gleason upgrade,[1]; [12],62.2%
same,percentage of patients: hemi-prostate multifocal cancer with Gleason upgrade,[1]; [13],13.0 (p = 0.0549) %
same,% Imp.: hemi-prostate multifocal cancer with Gleason upgrade,[1]; [14],63.6%
same,percentage of patients: hemi-prostate multifocal cancer with Gleason upgrade,[1]; [15],27.6%
same,% Imp.: hemi-prostate multifocal cancer with Gleason upgrade,[1]; [16],39.3%
same,percentage of patients: cancer treatment with new multifocal and an increase in Gleason grade primary pattern in the hemi-prostate,[2]; [5],0 (p = 0.025) %
same,% Imp.: cancer treatment with new multifocal and an increase in Gleason grade primary pattern in the hemi-prostate,"[2]; FT 2.5 mg, <=18 mos",100%
same,percentage of patients: cancer treatment with new multifocal and an increase in Gleason grade primary pattern in the hemi-prostate,[2]; [6],0 (p = 0.017) %
same,% Imp.: cancer treatment with new multifocal and an increase in Gleason grade primary pattern in the hemi-prostate,"[2]; FT 2.5 mg, <=36 mos",100%
same,percentage of patients: cancer treatment with new multifocal and an increase in Gleason grade primary pattern in the hemi-prostate,[2]; [7],0 (p = 0.031) %
same,% Imp.: cancer treatment with new multifocal and an increase in Gleason grade primary pattern in the hemi-prostate,"[2]; FT 2.5 mg, <=48 mos",100%
same,percentage of patients: cancer treatment with new multifocal and an increase in Gleason grade primary pattern in the hemi-prostate,[2]; [8],2.6%
same,% Imp.: cancer treatment with new multifocal and an increase in Gleason grade primary pattern in the hemi-prostate,"[2]; FT 15 mg, <=18 mos",75.2%
same,percentage of patients: cancer treatment with new multifocal and an increase in Gleason grade primary pattern in the hemi-prostate,[2]; [9],3.6%
same,% Imp.: cancer treatment with new multifocal and an increase in Gleason grade primary pattern in the hemi-prostate,"[2]; FT 15 mg, <=36 mos",79.5%
same,percentage of patients: cancer treatment with new multifocal and an increase in Gleason grade primary pattern in the hemi-prostate,[2]; [10],4.2%
same,% Imp.: cancer treatment with new multifocal and an increase in Gleason grade primary pattern in the hemi-prostate,"[2]; FT 15 mg, <=48 mos",77.7%
same,percentage of patients: cancer treatment with new multifocal and an increase in Gleason grade primary pattern in the hemi-prostate,[2]; [11],1.3 (p = 0.034) %
same,% Imp.: cancer treatment with new multifocal and an increase in Gleason grade primary pattern in the hemi-prostate,[2]; [12],87.6%
same,percentage of patients: cancer treatment with new multifocal and an increase in Gleason grade primary pattern in the hemi-prostate,[2]; [13],1.7 (p = 0.01) %
same,% Imp.: cancer treatment with new multifocal and an increase in Gleason grade primary pattern in the hemi-prostate,[2]; [14],90.3%
same,percentage of patients: cancer treatment with new multifocal and an increase in Gleason grade primary pattern in the hemi-prostate,[2]; [15],2.1 (p = 0.019) %
same,% Imp.: cancer treatment with new multifocal and an increase in Gleason grade primary pattern in the hemi-prostate,[2]; [16],88.8%
same,percentage of patients: cancer treatment with new multifocal with increased Gleason grade in the hemi-prostate,[3]; [5],4.9%
same,% Imp.: cancer treatment with new multifocal with increased Gleason grade in the hemi-prostate,"[3]; FT 2.5 mg, <=18 mos",69%
same,percentage of patients: cancer treatment with new multifocal with increased Gleason grade in the hemi-prostate,[3]; [6],10%
same,% Imp.: cancer treatment with new multifocal with increased Gleason grade in the hemi-prostate,"[3]; FT 2.5 mg, <=36 mos",57.4%
same,percentage of patients: cancer treatment with new multifocal with increased Gleason grade in the hemi-prostate,[3]; [7],17.4%
same,% Imp.: cancer treatment with new multifocal with increased Gleason grade in the hemi-prostate,"[3]; FT 2.5 mg, <=48 mos",44.4%
same,percentage of patients: cancer treatment with new multifocal with increased Gleason grade in the hemi-prostate,[3]; [8],5.1%
same,% Imp.: cancer treatment with new multifocal with increased Gleason grade in the hemi-prostate,"[3]; FT 15 mg, <=18 mos",67.7%
same,percentage of patients: cancer treatment with new multifocal with increased Gleason grade in the hemi-prostate,[3]; [9],7.1%
same,% Imp.: cancer treatment with new multifocal with increased Gleason grade in the hemi-prostate,"[3]; FT 15 mg, <=36 mos",69.8%
same,percentage of patients: cancer treatment with new multifocal with increased Gleason grade in the hemi-prostate,[3]; [10],8.3%
same,% Imp.: cancer treatment with new multifocal with increased Gleason grade in the hemi-prostate,"[3]; FT 15 mg, <=48 mos",73.5%
same,percentage of patients: cancer treatment with new multifocal with increased Gleason grade in the hemi-prostate,[3]; [11],5%
same,% Imp.: cancer treatment with new multifocal with increased Gleason grade in the hemi-prostate,[3]; [12],68.4%
same,percentage of patients: cancer treatment with new multifocal with increased Gleason grade in the hemi-prostate,[3]; [13],8.6%
same,% Imp.: cancer treatment with new multifocal with increased Gleason grade in the hemi-prostate,[3]; [14],63.4%
same,percentage of patients: cancer treatment with new multifocal with increased Gleason grade in the hemi-prostate,[3]; [15],12.8%
same,% Imp.: cancer treatment with new multifocal with increased Gleason grade in the hemi-prostate,[3]; [16],59.1%
same,"percentage of patients: new multifocal with increase Gleason primary pattern, entire prostate",[4]; [5],0 (p = 0.17) %
same,"% Imp.: new multifocal with increase Gleason primary pattern, entire prostate","[4]; FT 2.5 mg, <=18 mos",100%
same,"percentage of patients: new multifocal with increase Gleason primary pattern, entire prostate",[4]; [6],0 (p = 0.074) %
same,"% Imp.: new multifocal with increase Gleason primary pattern, entire prostate","[4]; FT 2.5 mg, <=36 mos",100%
same,"percentage of patients: new multifocal with increase Gleason primary pattern, entire prostate",[4]; [7],0 (p = 0.009) %
same,"% Imp.: new multifocal with increase Gleason primary pattern, entire prostate","[4]; FT 2.5 mg, <=48 mos",100%
same,"percentage of patients: new multifocal with increase Gleason primary pattern, entire prostate",[4]; [8],2.9%
same,"% Imp.: new multifocal with increase Gleason primary pattern, entire prostate","[4]; FT 15 mg, <=18 mos",82.6%
same,"percentage of patients: new multifocal with increase Gleason primary pattern, entire prostate",[4]; [9],4.5%
same,"% Imp.: new multifocal with increase Gleason primary pattern, entire prostate","[4]; FT 15 mg, <=36 mos",82%
same,"percentage of patients: new multifocal with increase Gleason primary pattern, entire prostate",[4]; [10],13.3%
same,"% Imp.: new multifocal with increase Gleason primary pattern, entire prostate","[4]; FT 15 mg, <=48 mos",62.7%
same,"percentage of patients: new multifocal with increase Gleason primary pattern, entire prostate",[4]; [11],1.4 (p = 0.049) %
same,"% Imp.: new multifocal with increase Gleason primary pattern, entire prostate",[4]; [12],91.6%
same,"percentage of patients: new multifocal with increase Gleason primary pattern, entire prostate",[4]; [13],2.1 (p = 0.0031) %
same,"% Imp.: new multifocal with increase Gleason primary pattern, entire prostate",[4]; [14],91.6%
same,"percentage of patients: new multifocal with increase Gleason primary pattern, entire prostate",[4]; [15],6.5 (p = 0.012) %
same,"% Imp.: new multifocal with increase Gleason primary pattern, entire prostate",[4]; [16],81.8%
